Measurements taken from US6288113A, “Angiogenesis promoters” (Welfide Corporation, priority 1997, dated 2001).

Tests used:
Format in all cases: in vivo
angiogenesis by b-FGF [1] = assay: Rat sponge model with b-FGF, hemoglobin content of sponge (Experimental Example 2); details: for Hemoglobin in sponge at 4 days after implanting: mean ± standard error
Experimental: (§1) In the same manner as in Experimental Example 1, as the promoter of the present invention, the AS-containing lipid emulsion of Example 4 was diluted with a 10% lipid emulsion (Intralipos®, manufactured by the Green Cross Corporation, produced and sold by Yoshitomi Pharmaceutical Industries, Ltd. since Apr. 1, 1998) and used. For the vehicle administration control group, the above-mentioned 10% lipid emulsion alone was used.
(§2) Using a hemostatic gelatin sponge infiltrated with physiological saline containing 0.1% BSA (bovine serum albumin) or b-FGF solution (b-FGF 1 mg/ml solution, 100 μl, diluted 10-fold with physiological saline containing 0.1% BSA), and in the same manner as in Experimental Example 1, rat sponge models (6-8 animals per group) were prepared. The vehicle and AS were bolus administered via the tail vein once a day at the volume of 1 ml/kg from the day of sponge implanting to day 4. After 4 days from the implanting, the surface of the sponge was photographed, and the amount of the hemoglobin in the sponge was calculated in the same manner as in Experimental Example 1.
For the evaluation of the angiogenic effect, a multiple comparison test (group 1 versus groups 2, 3) by Dunnett method was performed to examine significant difference, using the vehicle alone administration group (BSA-containing physiological saline in sponge +10% lipid emulsion intravenous injection) as a control. For the evaluation of the relationship between AS and b-FGF, an unpaired t-test (group 2 versus group 3) was performed using the b-FGF alone administration group as a control to examine significant difference. The significance was ascribed at less than 5% risk rate.

angiogenesis by b-FGF [2] = assay: Rat sponge model with b-FGF, observation of photograph of sponge surface (Experimental Example 2)
Experimental: as §1, §2

angiogenesis [3] = assay: Rat sponge model, hemoglobin content of sponge (Experimental Example 1)
Experimental: (§3) As the promoter of the present invention, the AS-containing lipid emulsion of Example 4 was diluted with a 10% lipid emulsion (Intralipos®, manufactured by the Green Cross Corporation, produced and sold by Yoshitomi Pharmaceutical Industries, Ltd. since April 1, 1998) and used. For the vehicle administration control group, the above-mentioned 10% lipid emulsion alone was used.
(§4) Rats were anesthetized and the dorsal median line was incised for about 1 cm and an air pocket was made subcutaneously at about 2.5 cm toward the tail side with a Kocher clamp. A hemostatic gelatin sponge (Spongel®, 1.0×1.0×0.5 cm; manufactured by Yamanouchi Pharmaceutical Co., Ltd.) infiltrated with physiological saline was implanted therein to prepare rat sponge models.
The incisive region was sutured, antisepticized and intramulscular injection of an antibiotic was given, after which the rats were returned to the breeding cages. Each preparation was bolus administered via the tail vein once a day from the day of sponge implanting to day 4. After 4 days from the implanting, 8 rats per group were sacrificed. The back was opened, and the surrounding tissue was removed trying not to damage the implanted sponge and the surface of the sponge was photographed. All the sponges were taken out and a 0.1M aqueous ammonia (2 ml) was added. The sponges were stood for 4 hr to extract hemoglobin in the sponge. Hemoglobin in the extract (100 μl) was quantitated using an assay kit (hemoglobin B-TESTWAKO; manufactured by Wako Pure Chemical Industries, Ltd.). The amount of the hemoglobin in the sponge was calculated and used as the index of angiogenesis.
For the evaluation of the angiogenic effect, a multiple comparison test by Dunnett method was performed to examine significant difference, using the vehicle administration group as a control. The significance was ascribed at less than 5% risk rate.

angiogenesis [4] = assay: Rat sponge model, observation of photograph of sponge surface (Experimental Example 1); details: AS administration group; after 4 days; visual observation
Experimental: as §3, §4
The incisive region was sutured, antisepticized and intramulscular injection of an antibiotic was given, after which the rats were returned to the breeding cages. Each preparation was bolus administered via the tail vein once a day from the day of sponge implanting to day 4. After 4 days from the implanting, 8 rats per group were sacrificed. […] Hemoglobin in the extract (100 μl) was quantitated using an assay kit (hemoglobin B-TESTWAKO; manufactured by Wako Pure Chemical Industries, Ltd.). The amount of the hemoglobin in the sponge was calculated and used as the index of angiogenesis.

Compound | angiogenesis promoting effect by b-FGF (angiogenesis by b-FGF [1]; AS and b-FGF co-administered, summary) | hemoglobin content of sponge as compared with the b-FGF alone administration group (angiogenesis by b-FGF [1]; AS and b-FGF co-administration group, result in words) | Hemoglobin in sponge at 4 days after implanting (angiogenesis by b-FGF [1]; group 3: AS 3 μg/kg i.v. with b-FGF 1 μg/sponge, n 7, P < 0.05 vs b-FGF alone (unpaired t-test)) | blood vessels on sponge surface (FIG. 5) (angiogenesis by b-FGF [2]; AS and b-FGF co-administration group (group 3)) | Hemoglobin in sponge at 4 days after implanting (angiogenesis [3]; AS 3 μg/kg i.v. bolus via tail vein once a day to day 4, mean ± standard error, P < 0.05 vs vehicle 1.5 ± 0.9 (Dunnett)) | hemoglobin content compared with the vehicle administration group (angiogenesis [3]; AS 3 μg/kg i.v. bolus, consecutive, result in words) | promotion of angiogenesis (angiogenesis [3]; summary of hemoglobin content and photograph observation, Experimental Example 1) | blood vessels on sponge surface (FIG. 2) (angiogenesis [4]) | hemoglobin content of sponge (angiogenesis by b-FGF [1]; b-FGF alone administration group, after 4 days, result in words) | Hemoglobin in sponge at 4 days after implanting (angiogenesis by b-FGF [1]; group 2: b-FGF 1 μg/sponge, 10% lipid emulsion i.v. 1 ml/kg, n 8, vehicle alone 6.5 ± 0.7) | blood vessels on sponge surface (FIG. 4) (angiogenesis by b-FGF [2]; b-FGF administration group (group 2))
CCCCC[C@H](O)/C=C/[C@@H]1C(CCCCCCC(=O)OCCCC)=C(OC(=O)CCC)C[C@H]1O [AS, butyl 9-butyryloxy-11α,15S-dihydroxyprosta-8,13E-dien-1-oate] | potentiated | increased significantly | 20.7 ± 3.1 mg/sponge | more noticeable formation of a blood vessel network was observed, with larger blood vessel diameters | 4.4 ± 0.8 mg/sponge | increased the hemoglobin content compared with the vehicle administration group and a significant difference was observed | promoted angiogenesis | a noticeable blood vessel network that allows visual observation was found, showing superior angiogenesis | – | – | –
b-FGF: growth factor, basic fibloblast growth factor | – | – | – | – | – | – | – | – | increased | 11.8 ± 0.9 mg/sponge | a number of blood vessels were observed on the surface of the sponge, showing formation of a blood vessel network
